Assays:
[1] = In vitro clearance, human; assay type: in vitro ADME
[2] = In vitro clearance, rat; assay type: in vitro ADME
[3] = molecular target: T1, hM5 (Homo sapiens, UniProt P08912); assay: Calcium mobilization assay with hM5-CHO cells, EC80 acetylcholine; assay type: cell-based; conditions: for hM5 IC50: hM5-CHO cells, EC80 acetylcholine, one experiment in triplicate
T1 sequence (P08912 1-532): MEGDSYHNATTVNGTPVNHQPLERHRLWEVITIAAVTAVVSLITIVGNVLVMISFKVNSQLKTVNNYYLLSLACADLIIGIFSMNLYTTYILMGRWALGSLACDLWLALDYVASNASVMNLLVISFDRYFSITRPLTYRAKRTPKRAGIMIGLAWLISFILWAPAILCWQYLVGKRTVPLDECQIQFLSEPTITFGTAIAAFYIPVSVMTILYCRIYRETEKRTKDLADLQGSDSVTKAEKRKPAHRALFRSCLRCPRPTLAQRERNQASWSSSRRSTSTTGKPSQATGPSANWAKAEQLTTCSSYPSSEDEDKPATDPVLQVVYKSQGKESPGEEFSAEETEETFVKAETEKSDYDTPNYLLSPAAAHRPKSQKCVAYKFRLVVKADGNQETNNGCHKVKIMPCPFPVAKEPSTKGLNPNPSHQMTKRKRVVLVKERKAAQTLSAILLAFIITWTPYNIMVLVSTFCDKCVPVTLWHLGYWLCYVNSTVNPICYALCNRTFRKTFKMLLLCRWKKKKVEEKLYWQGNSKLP

| Compound | Predicted CLhep (h) [1] | Predicted CLhep (r) [2] | fold more potent than (S)-12a (12c) (hM5 IC50) ([3]; versus 12c) | hM5 IC50 [3] |
| --- | --- | --- | --- | --- |
| O=C(Nc1ccc2scnc2c1)C1CCN(S(=O)(=O)c2ccc3c(c2)CCO3)C1 (centres unmarked) [12a] | 16 mL/min/kg | 55 mL/min/kg | – | – |
| O=C(Nc1ccc2scnc2c1)C1CN(S(=O)(=O)c2ccc3c(c2)CCO3)C1 [12b] | 16 mL/min/kg | 57 mL/min/kg | – | – |
| O=C(Nc1ccc2scnc2c1)[C@H]1CCN(S(=O)(=O)c2ccc3c(c2)CCO3)C1 [12c] | 16 mL/min/kg | 52 mL/min/kg | – | – |
| O=C(Nc1ccc2scnc2c1)[C@@H]1CCN(S(=O)(=O)c2ccc3c(c2)CCO3)C1 [12d] | 15 mL/min/kg | 59 mL/min/kg | 21 fold | – |
| C[C@@H]1CN(S(=O)(=O)c2ccc3c(c2)CCO3)C[C@@H]1C(=O)Nc1ccc2scnc2c1 [12e] | 19 mL/min/kg | 64 mL/min/kg | – | – |
| C[C@H]1CN(S(=O)(=O)c2ccc3c(c2)CCO3)C[C@@H]1C(=O)Nc1ccc2scnc2c1 [12f] | 4 mL/min/kg | 29 mL/min/kg | – | – |
| O=C(Nc1ccc2scnc2c1)[C@H]1CN(S(=O)(=O)c2ccc3c(c2)CCO3)C[C@@H]1C(F)(F)F [12g] | – | – | – | inactive |
| O=C(Nc1ccc2scnc2c1)C12CC1CN(S(=O)(=O)c1ccc3c(c1)CCO3)C2 (centres unmarked) [12h] | 18 mL/min/kg | 60 mL/min/kg | – | – |
| Cc1nn(C)cc1S(=O)(=O)N1CC[C@@H](C(=O)Nc2ccc3scnc3c2)C1 [17a] | – | – | – | inactive |
| Cn1cc(S(=O)(=O)N2CC[C@@H](C(=O)Nc3ccc4scnc4c3)C2)c(C(F)(F)F)n1 [17b] | – | – | – | inactive |
| O=C(Nc1ccc2scnc2c1)[C@@H]1CCN(S(=O)(=O)c2cccnc2)C1 [17c] | – | – | – | inactive |
| O=C(Nc1ccc2scnc2c1)[C@@H]1CCN(S(=O)(=O)c2ccc(Cl)nc2)C1 [17d] | – | – | – | inactive |
| [2H]C1([2H])Oc2ccc(S(=O)(=O)N3CC[C@@H](C(=O)Nc4ccc5scnc5c4)C3)cc2C1([2H])[2H] [17f] | 15 mL/min/kg | 49 mL/min/kg | – | – |
| O=C(Nc1ccc2scnc2c1)[C@@H]1CCN(S(=O)(=O)c2ccc3c(c2)OCO3)C1 [17g] | 12 mL/min/kg | 55 mL/min/kg | – | – |
| O=C(Nc1ccc2scnc2c1)[C@@H]1CCN(S(=O)(=O)c2ccc3c(c2)CCC3)C1 [17h] | – | – | – | significantly less active |
| O=C(Nc1ccc2scnc2c1)[C@@H]1CCN(S(=O)(=O)c2ccc3ncccc3c2)C1 [17i] | 14 mL/min/kg | 51 mL/min/kg | – | – |
| O=C(Nc1ccc2scnc2c1)[C@@H]1CCN(S(=O)(=O)c2ccc3ncsc3c2)C1 [17j] | 13 mL/min/kg | 29 mL/min/kg | – | – |

From PMC10938303 (Bioorganic & medicinal chemistry letters, 2022)
